From patent publication US12478634B2, “Compositions and methods for treating muscular dystrophy and other disorders” (The Charlotte Mecklenburg Hospital Authority, priority 2016, dated 2025)

Tests used:
epithelial cells [1] = experiment: IIH6 membrane staining of glycosylated α-DG in treated epithelial cells; type: cell-based; settings: 3 days culture with agent, vs control
Method: The white lines represent the membrane staining with the antibody. […] Cells are grown in culture medium and active reagents were added one day later and culture for further 3 days with the described concentration. The cells were then washed, fixed and stained with IIH6 antibody for the expression of glycosylated a-DG. The positive signals present as membrane staining (white lines and circles here) which are only detected in the majority of the treated samples, but hardly seen in the control.

[2] = test system: FKRP and LARGE transcripts; experiment: Quantitative real-time PCR of FKRP and LARGE transcripts; type: in vivo, mouse; settings: cardiac muscle, limb muscle and diaphragm
Method: Quantitative reverse transcriptase PCR assay. Tissues were collected from heart, diaphragm and tibialis anterior. RNA was extracted using TRIzol (Invitrogen) following the supplied protocol. Final RNA pellet was re-suspended in 20 μl RNAse-nuclease free water. Final RNA concentration was determined using Nanodrop 2000c. One […] of RNA was subsequently converted to cDNA using the High-Capacity RNA-to-cDNA™ Kit (Applied Biosystems) following the supplied protocol. cDNA was then used for quantitative real-time PCR using the mouse FKRP-FAM (Mm00557870 ml) and LARGE-FAM (Mm00521885_ml) taqman assay with primer limited GAPDH-VIC (Mm99999915_g1) as the internal control and TaqMan® Universal Master Mix II, with UNG (Life Technologies). […] Results of FKRP and LARGE transcript were calculated and expressed as 2^−ΔΔCt and compared across tissues and animals.

epithelial cells [3] = experiment: IIH6 blot of glycosylated α-DG from treated epithelial cells; type: cell-based; settings: 3 days culture with agent
Method: Lane 1, control untreated cells; Lane 4, cells treated with ribulose-5-phosphate; Lane 5, cells treated with glucose. […] Cells are grown in culture medium and active reagents were added one day later and culture for further 3 days with the active agent. The cells were then collected, homogenized, blotted onto membrane and detected with 1H6 antibody for the expression of glycosylated a-DG. The black large spot represents the expression of the glycosylated a-DG, with higher intensity indicating higher levels.

MCF-7 cells = experiment: FACS for expression of glycosylated alpha-DG after ribitol treatment; type: cell-based; settings: MCF-7, 10 mM ribitol for 3 days; untreated controls 45%
Method: FIG. 1. Fluorescence-activated cell sorting (FACS) for the enhanced expression of glycosylated alpha-DG after ribitol treatment. The breast cancer cell line MCF-7 was seeded in T25 culture flasks and cultured to 75% confluence in DMEM 10% FBS, and then treated with 10 mM ribitol in the same growth medium for 3 days. The cells were then collected by gentle scrapping and washed twice with PBS. The cells were resuspended in 100 microliter PBS and stained with monoclonal antibody IIH6 (Millipore EMD, 1:100 dilution) for 40 minutes and detected with secondary Alexa 594-labeled goat anti-mouse IgM (Invitrogen). The stained cells were washed and then FACS analyzed for the percentage of positive cells and the signal intensity (Alexa594.007). […]
Fluorescence-activated cell sorting (FACS) was used to show enhanced expression of glycosylated alpha-DG after ribitol treatment. […] The cells were resuspended in 100 microliter PBS and stained with monoclonal antibody IIH6 (Millipore EMD, 1:100 dilution) for 40 minutes and detected with secondary Alexa 594-labeled goat anti-mouse IgM (Invitrogen). The stained cells were washed and then FACS analyzed for the percentage of positive cells and the signal intensity (Alexa594.007). […]

SMILES | glycosylated α-DG membrane staining (IIH6) (epithelial cells [1]) | FKRP and LARGE transcript levels, treated vs untreated [2] | functionally glycosylated alpha-DG on blot (epithelial cells [3]) | positive cells for glycosylated alpha-DG (IIH6 antibody) (MCF-7 cells) [%]
Nc1ccn([C@@H]2O[C@H](COP(=O)(O)OP(=O)(O)OC[C@@H](O)[C@@H](O)[C@@H](O)CO)[C@@H](O)[C@H]2O)c(=O)n1 [CDP-ribitol] | positive signals are identified in the majority of the cells | – | – | –
OC[C@@H](O)[C@@H](O)[C@@H](O)CO [ribitol] | positive signals are identified in the majority of the cells | No statistically significant difference | observed visually | 82
O=C(CO)[C@H](O)[C@H](O)COP(=O)(O)O [ribulose-5-phosphate, reference compound] | – | – | barely detectable | –
O=C(CO)[C@H](O)[C@H](O)CO [ribulose] | positive signals are identified in the majority of the cells | – | observed visually | –
